{"source": "patent US12492163B2", "about": "“9H-fluorene derivatives or their pharmaceutically acceptable salts” (priority 2020, dated 2025)", "key": {"[1]": {"target": "human plasma butyrylcholinesterase (hBuChE) (Homo sapiens (Human), UniProt P06276)", "sequence (P06276 29-602)": "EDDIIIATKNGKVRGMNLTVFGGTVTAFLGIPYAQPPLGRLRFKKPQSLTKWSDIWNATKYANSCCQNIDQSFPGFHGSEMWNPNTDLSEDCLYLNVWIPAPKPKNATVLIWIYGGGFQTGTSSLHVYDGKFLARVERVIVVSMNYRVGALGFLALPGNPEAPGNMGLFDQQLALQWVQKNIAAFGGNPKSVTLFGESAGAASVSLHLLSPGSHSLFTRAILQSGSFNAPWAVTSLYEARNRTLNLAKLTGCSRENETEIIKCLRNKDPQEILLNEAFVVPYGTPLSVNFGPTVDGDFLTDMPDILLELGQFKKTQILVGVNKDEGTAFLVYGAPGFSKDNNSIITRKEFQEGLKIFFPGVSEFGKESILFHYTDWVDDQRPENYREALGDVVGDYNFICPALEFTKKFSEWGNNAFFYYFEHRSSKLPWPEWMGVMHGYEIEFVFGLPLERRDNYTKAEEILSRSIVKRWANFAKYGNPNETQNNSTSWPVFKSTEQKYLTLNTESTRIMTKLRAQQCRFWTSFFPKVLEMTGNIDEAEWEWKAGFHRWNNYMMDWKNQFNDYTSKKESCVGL", "experiment": "Ellman's test, inhibition of human plasma butyrylcholinesterase", "assay_type": "biochemical", "method_in_brief": "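Modified Ellman assay: compound preincubated 5 min with enzyme and DTNB in 0.1 M phosphate buffer pH 8.0 at 25° C (eqBuChE) or 36° C (hBuChE), then butyrylthiocholine added; absorbance change at 412 nm read after 5 min. Screening at 10 μM (eqBuChE) or 1 μM (hBuChE); IC50 by non-linear regression, triplicates.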"}, "mGAT1": {"target": "mGAT1 (Mus musculus (Mouse), UniProt P31648)", "experiment": "[3H]GABA uptake inhibition, mGAT1 in HEK293 cells", "assay_type": "cell-based", "details": "GABA reuptake", "method": "(§1) Exemplary compounds according to the invention were screened at the Ludwig-Maximilian University of Munich to determine the inhibitory ability towards four mouse GAT transporters (mGAT1-mGAT4). […] The biological material was stably transfected human embryonic kidney HEK293 cells, expressing genes to the appropriate transporters. The generated radioactivity was measured with a liquid scintillation counter. […] These determinations were made according to the procedure described in detail in A. Kragler, G. Höfner, K. T. Wanner, Novel parent structures for inhibitors of the murine GABA transporters mGAT3 and mGAT4, Eur. J. Pharmacol. 519 (2005) 43-47."}, "mGAT2": {"target": "mGAT2 (Mus musculus (Mouse), UniProt P31651)", "sequence (P31651 whole entry)": "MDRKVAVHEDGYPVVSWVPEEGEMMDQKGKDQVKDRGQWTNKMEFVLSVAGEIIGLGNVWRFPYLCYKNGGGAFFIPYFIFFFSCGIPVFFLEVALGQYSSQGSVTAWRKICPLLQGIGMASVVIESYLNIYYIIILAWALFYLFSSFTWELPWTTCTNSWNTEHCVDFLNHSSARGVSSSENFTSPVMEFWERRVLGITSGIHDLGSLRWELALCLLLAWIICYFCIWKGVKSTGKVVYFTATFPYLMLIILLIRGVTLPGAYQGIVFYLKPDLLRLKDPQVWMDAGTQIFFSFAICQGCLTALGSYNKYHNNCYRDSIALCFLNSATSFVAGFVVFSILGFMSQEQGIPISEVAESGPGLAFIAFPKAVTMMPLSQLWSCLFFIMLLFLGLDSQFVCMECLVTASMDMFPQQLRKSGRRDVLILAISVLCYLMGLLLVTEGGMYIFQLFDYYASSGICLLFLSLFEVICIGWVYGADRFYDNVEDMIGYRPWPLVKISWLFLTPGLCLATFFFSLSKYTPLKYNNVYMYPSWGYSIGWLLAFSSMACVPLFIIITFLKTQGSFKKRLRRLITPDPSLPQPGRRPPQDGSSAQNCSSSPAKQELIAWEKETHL", "experiment": "[3H]GABA uptake inhibition, mGAT2 in HEK293 cells", "assay_type": "cell-based", "details": "inhibitor at 100 μM; remaining reuptake", "method": "as §1"}, "mGAT3": {"target": "mGAT3 (Mus musculus (Mouse), UniProt P31649)", "sequence (P31649 whole entry)": "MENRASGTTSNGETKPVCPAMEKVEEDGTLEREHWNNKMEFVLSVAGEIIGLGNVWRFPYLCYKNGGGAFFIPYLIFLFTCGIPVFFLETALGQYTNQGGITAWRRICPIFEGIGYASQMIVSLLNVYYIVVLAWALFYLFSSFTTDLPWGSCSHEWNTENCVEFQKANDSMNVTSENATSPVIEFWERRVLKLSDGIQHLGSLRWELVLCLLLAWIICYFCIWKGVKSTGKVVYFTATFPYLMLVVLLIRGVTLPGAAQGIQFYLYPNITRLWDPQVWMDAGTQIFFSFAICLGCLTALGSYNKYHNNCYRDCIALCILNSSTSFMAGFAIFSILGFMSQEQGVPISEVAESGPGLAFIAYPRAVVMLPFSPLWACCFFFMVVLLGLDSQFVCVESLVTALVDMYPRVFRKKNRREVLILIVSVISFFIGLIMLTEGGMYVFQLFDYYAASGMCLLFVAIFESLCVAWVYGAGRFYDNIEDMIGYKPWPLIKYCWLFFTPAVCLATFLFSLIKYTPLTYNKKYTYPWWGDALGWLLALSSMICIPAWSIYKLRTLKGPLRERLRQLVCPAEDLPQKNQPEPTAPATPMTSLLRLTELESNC", "experiment": "[3H]GABA uptake inhibition, mGAT3 in HEK293 cells", "assay_type": "cell-based", "details": "GABA reuptake", "method": "as §1"}, "mGAT4": {"target": "mGAT4 (Mus musculus (Mouse), UniProt P31650)", "sequence (P31650 whole entry)": "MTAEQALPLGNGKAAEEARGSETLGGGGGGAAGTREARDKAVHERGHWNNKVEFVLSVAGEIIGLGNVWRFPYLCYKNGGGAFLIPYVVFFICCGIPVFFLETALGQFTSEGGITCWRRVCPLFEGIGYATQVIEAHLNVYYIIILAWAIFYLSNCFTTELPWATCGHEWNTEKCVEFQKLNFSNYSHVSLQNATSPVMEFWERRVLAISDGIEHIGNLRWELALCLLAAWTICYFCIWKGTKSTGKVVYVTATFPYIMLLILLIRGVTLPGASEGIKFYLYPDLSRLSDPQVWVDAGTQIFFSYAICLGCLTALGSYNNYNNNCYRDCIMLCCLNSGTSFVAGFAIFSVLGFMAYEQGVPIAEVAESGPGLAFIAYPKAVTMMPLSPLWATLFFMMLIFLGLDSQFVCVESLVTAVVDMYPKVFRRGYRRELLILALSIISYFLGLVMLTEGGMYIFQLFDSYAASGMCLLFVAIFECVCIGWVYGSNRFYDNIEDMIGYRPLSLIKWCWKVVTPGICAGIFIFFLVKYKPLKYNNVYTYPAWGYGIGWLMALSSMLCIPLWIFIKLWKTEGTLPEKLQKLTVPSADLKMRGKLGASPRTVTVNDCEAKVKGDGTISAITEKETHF", "experiment": "[3H]GABA uptake inhibition, mGAT4 in HEK293 cells", "assay_type": "cell-based", "details": "GABA reuptake", "method": "as §1"}, "C57BL/6J mice": {"test_system": "C57BL/6J mice", "experiment": "Barnes maze test (scopolamine)", "assay_type": "in vivo, Mus musculus", "method": "The research was conducted at the Department of Pharmacodynamics, Faculty of Pharmacy, Jagiellonian University in Krakow. All procedures were approved by the 1st and 2nd Local Ethics Committee for Animal Experiments in Krakow (consent no. 53/2017 and 250/2019) and were performed in accordance with the applicable European Union regulation (86/609/EEC). Males of two different strains of domestic mice (Mus musculus) were used in the study: Albino Swiss CD-1 (body weight approx. 20-24 g, age approx. 6 weeks) and C57BL/6J mice (body weight approx. 18-22 g, age approx. 6 weeks). The CD-1 strain was used for the passive avoidance, spontaneous mobility and rotating rod tests, while the C57BL/6J mice were used for the Morris water maze and the Barnes' maze. The animals were kept in standard, appropriately sized cages, divided into groups with a maximum of 10 animals. The animals in the study groups in the learning phase were intraperitoneally administered the test compound 1 h before the start of the experiments (doses in the preliminary test, i.e. in the passive avoidance test: 10, 30 and 60 mg/kg), and 30 minutes later, 1 mg/kg of scopolamine subcutaneously. Two control groups were used in the tests to assess the procognitive activity of JT-3—one of them received saline and the other saline and scopolamine.\nThe test is used to study spatial (hippocampal-dependent) memory. […] Barnes' maze has 18 escape holes (escape points) evenly spaced on the outer edges of the circular platform, and only one of them leads to so-called escape box, where the mouse can hide. For the first four days (acquisition phase), the mouse was placed in the center of the maze in the starting chamber, the light was turned on, then the chamber was raised and time was started. The number of errors was also counted, i.e. how many holes the mouse approached before approaching the right hole for the first time, and the total number of errors until it entered the escape box. […] Each mouse was subjected to four trials a day.\nOn the fifth day, which is the recall phase (without administration of compounds), the box was removed from the escape hole and the total errors, the number of errors made up to the first approach of the mouse to the hole where the escape box was previously found and the latency to the first approach of the mouse were counted for 90 seconds to that hole were counted. The number of approaches to this hole and the time the mouse spent on it were also counted. On the twelfth day—“proper test” (without administration of compounds), the effect of the compound on long-term memory was assessed. The experiment was as in the recall phase; the same parameters were measured. Between the fifth and twelfth days, the animals were kept in home cages."}}, "data": [{"smiles": "O[C@H](CNCC1CC1)[C@H](Cc1ccccc1)NC1c2ccccc2-c2ccccc21", "note": "[JT-3, (2R,3S)-3-((9H-fluoren-9-yl)amino)-1-((cyclopropylmethyl)amino)-4-phenylbutan-2-ol]", "values": [{"measurement": "IC50", "setting": "[1]", "value": 207, "unit": "nM"}, {"measurement": "pIC50 (+/−SEM) mGAT1", "setting": "mGAT1", "value": 4.96}, {"measurement": "percentage of [3H]GABA reuptake retained, mGAT2", "setting": "mGAT2", "value": 51, "unit": "%"}, {"measurement": "pIC50 (+/−SEM) mGAT3", "setting": "mGAT3", "value": "5.13 +/− 0.04"}, {"measurement": "pIC50 (+/−SEM) mGAT4", "setting": "mGAT4", "value": "5.11 +/− 0.02"}, {"measurement": "number of errors made before finding the escape site, acquisition phase", "setting": "C57BL/6J mice; 10 mg/kg i.p., days 1-4", "value": "no statistically significant differences"}, {"measurement": "latency to find the escape site, acquisition phase vs scopolamine control", "setting": "C57BL/6J mice; 10 mg/kg i.p., fourth day of the test, p<0.05", "value": "Statistically significant differences"}, {"measurement": "recall phase activity", "setting": "C57BL/6J mice; fifth day, 10 mg/kg i.p. on days 1-4", "value": "not active"}, {"measurement": "number of errors made to find the escape zone vs scopolamine control", "setting": "C57BL/6J mice; twelfth day, 10 mg/kg i.p. on days 1-4, p<0.0001", "value": "the reduction in errors was also statistically significant"}, {"measurement": "latency to find the escape zone vs scopolamine control", "setting": "C57BL/6J mice; twelfth day, 10 mg/kg i.p. on days 1-4, p<0.05", "value": "the reduction in latency was also statistically significant"}]}]}
